# In patent US20250319139A1, “METHODS FOR TREATING NEUROINFLAMMATION” (University of Virginia Patent Foundation, priority 2021, published 2025):
# Tests used:
# IL-17 [1] = assay: ELISA of IL-17 in the brain; format: in vivo, mouse; conditions: mice without MCAO; 1 mg/kg by gastric gavage after each valeric sodium 100 mg/kg intraperitoneal injection, 7 days
# Protocol: (§1) Mice were weighed and anesthetized with isoflurane at 24 h after MCAO. Blood samples were obtained from the right heart after thoracotomy. Blood was centrifuged (13,000 g, 4° C.) after it had been placed at 4° C. for 2 h for the collection of serum. After the collection of blood, mice were perfused with 4° C. saline for brain tissue harvesting. The cerebral cortex (anteroposterior: −1.5 to 2.5 mm, mediolateral: 1.0 to 3.0 mm) was dissected out. All dissection procedures were performed on ice.
# (§2) IL-10, IL-17, IL-1β and IL-6 in the serum and brain were detected by using ELISA kits (catalog number: M1000B, M1700, MLB00C and D6050, R&D SYSTEM, Inc., Minneapolis, MN, USA) as we described before. The brain tissues were homogenized on ice in the RIPA buffer containing 25 mM Tris-HCl with pH 7.6, 150 mM NaCl, 1% sodium deoxycholate and 0.1% SDS (catalog number: 89901, Thermo Scientific, Rockford, IL, USA) and a protease inhibitor cocktail containing 10 mg/ml aproteinin, 5 mg/ml peptastin, 5 mg/ml leupetin and 1 mM phenylmethane sulfonylfluoride (catalog number: SRE0055, Sigma-Aldrich, St. Louis, MO, USA). The supernatant was collected for ELISA detection after being centrifuged for 20 min (13,000 g, 4° C.) and the protein concentration was determined by the BCA method. Cytokines in the serum and supernatant of brain were detected according to the manufacturer's instruction. The amount of IL-10, IL-17, IL-1β and IL-6 in each sample in the brain was normalized by its protein content.
# IL-17 [2] = assay: ELISA of IL-17 in the serum; format: in vivo, mouse; conditions: mice without MCAO; 1 mg/kg by gastric gavage after each valeric sodium 100 mg/kg intraperitoneal injection, 7 days
# Protocol: as §1, §2
# C57BL/6J mice [3] = assay: Barnes maze test, young adult mice; format: in vivo, mouse; conditions: surgery mice; intracerebroventricular 10 μg/kg at 0, 24, 48 and 72 h after surgery; vs solvent
# C57BL/6J mice [4] = assay: Novel object recognition test, young adult mice; format: in vivo, mouse; conditions: surgery mice; intracerebroventricular 10 μg/kg at 0, 24, 48 and 72 h after surgery; vs solvent
# gut microbiota = conditions: 300 mg/kg intraperitoneal once daily for 5 consecutive days; previous study [20]; cited from earlier work
# C57BL/6J mice [5] = assay: Infarct volume after MCAO; format: in vivo, mouse; conditions: young mice, 100 mg/kg intraperitoneal 1 h before and 6 h after 120-min MCAO; 24 h after MCAO; vs saline
# Protocol: As we described previously, left MCAO with intravascular suture technique was performed to mice. Briefly, mice were anesthetized with isoflurane and the rectal temperature was maintained at 37±0.5° C. by the feedback-controlled heating system. A monofilament nylon suture (catalog number: 1622-A1, Beijing CiNontech Co. Ltd., Beijing, China) was used to induce the MCAO via the external carotid artery to the left internal carotid artery until slight resistance was felt. […]
# The infarct volumes were assessed 24 h after MCAO by a blinded investigator after 2,3,5-triphenyltetrazolium chloride staining. […] The average infarct area of the rostral and caudal sides of each slice was calculated. The infarct volume of the brain slice was calculated by multiplying the average infarct area of the slice by the thickness of the slice. […] To correct the cerebral edema and differential shrinkage resulting from brain ischemia and tissue processing, the corrected brain infarct volume was calculated: corrected brain infarct volume in percentage=[right hemisphere volume-(left hemisphere volume-left infarction volume)]×100/right hemisphere volume.
# IL-1β [6] = assay: ELISA of IL-1β in the brain; format: in vivo, mouse; conditions: young mice, 100 mg/kg intraperitoneal 1 h before and 6 h after 120-min MCAO; 24 h after MCAO; vs saline
# Protocol: as §2, with “Mice were weighed and anesthetized with isoflurane at 24 h after MCAO. Blood samples were obtained from the right heart after thoracotomy. Blood was centrifuged (13,000 g, 4° C.) after it had been placed at 4° C. for 2 h for the collection of serum. After the collection of blood, mice were perfused with 4° C. saline for brain tissue harvesting. The cerebral cortex (anteroposterior: -1.5 to 2.5 mm, mediolateral: 1.0 to 3.0 mm) was dissected out. All dissection procedures were performed on ice. IL-10,” for “IL-10,”, “[…],” for “peptastin,”, “The amount of IL-10, IL-17, IL-1β and IL-6 in each sample in the brain was normalized by its protein content.” left out
# IL-6 [7] = assay: ELISA of IL-6 in the brain; format: in vivo, mouse; conditions: young mice, 100 mg/kg intraperitoneal 1 h before and 6 h after 120-min MCAO; 24 h after MCAO; vs saline
# Protocol: as §2, with “Mice were weighed and anesthetized with isoflurane at 24 h after MCAO. Blood samples were obtained from the right heart after thoracotomy. Blood was centrifuged (13,000 g, 4° C.) after it had been placed at 4° C. for 2 h for the collection of serum. After the collection of blood, mice were perfused with 4° C. saline for brain tissue harvesting. The cerebral cortex (anteroposterior: -1.5 to 2.5 mm, mediolateral: 1.0 to 3.0 mm) was dissected out. All dissection procedures were performed on ice. IL-10,” for “IL-10,”, “[…],” for “peptastin,”, “The amount of IL-10, IL-17, IL-1β and IL-6 in each sample in the brain was normalized by its protein content.” left out
# [8] = Valeric acid in the blood by ELISA (pilot dosage experiment); format: in vivo, mouse; conditions: young mice, 100 mg/kg intraperitoneal twice at an interval of 7 h; blood 3 h after second injection; pilot study
# Protocol: A pilot experiment was performed to determine the dosage of valeric acid used in this study. Eight-week old mice were divided into two groups: Y-Saline group that received two intraperitoneal 100 μl normal saline injections at an interval of 7 h, and Y-Valeric group that received two intraperitoneal 100 mg/kg in 100 μl valeric sodium injections at an interval of 7 h. One group of 18-month old mice that was labeled O-Saline received two intraperitoneal 100 μl normal saline injections at an interval of 7 h. Blood was harvested 3 h after the second injection of valeric sodium or normal saline to measure valeric acid.
# Valeric acid in the blood harvested from the experiment to determine the dosage of valeric acid injected intraperitoneally was measured by using an ELISA kit (catalog number: JM-12270M1, Jingmei Biotechnology, Jiangsu, China) following the manufacturer's instructions.
# C57BL/6J mice [9] = assay: Rotarod test after MCAO; format: in vivo, mouse; conditions: young mice, 100 mg/kg intraperitoneal 1 h before and 6 h after 120-min MCAO; 24 h after MCAO; vs saline
# Protocol: (§3) As we described previously, left MCAO with intravascular suture technique was performed to mice. Briefly, mice were anesthetized with isoflurane and the rectal temperature was maintained at 37±0.5° C. by the feedback-controlled heating system. A monofilament nylon suture (catalog number: 1622-A1, Beijing CiNontech Co. Ltd., Beijing, China) was used to induce the MCAO via the external carotid artery to the left internal carotid artery until slight resistance was felt. Mice were re-anesthetized by isoflurane and the sutures were removed at 60 min (only for the set of experiments of old mice with fecal transplantation; this selection was because of a high mortality rate after a longer MCAO) or 120 min (for all other sets of experiments) after the onset of MCAO.
# Rotarod test was performed to evaluate the motor coordination as we described before. All mice received the training for three continuous days before the induction of brain ischemia. The formal test was performed just 24 h before and 24 h after the MCAO. […] The latency and the speed were recorded when the tested mice fell off the rod. […] The speed-latency index, which is latency(s)×speed (rpm), was calculated. The ratio of mean index of the five trials obtained after MCAO and before MCAO was calculated to reflect the change in coordinate function of each mouse.
# C57BL/6J mice [10] = assay: Neurological deficit scores after MCAO; format: in vivo, mouse; conditions: young mice, 100 mg/kg intraperitoneal 1 h before and 6 h after 120-min MCAO; 24 h after MCAO; vs saline
# Protocol: as §3
# Neurological deficit scores were tested 24 h after the stroke by a blinded investigator [25, 26]. Briefly, mice were scored as follows: zero, no apparent deficits; one, failure to extend right forepaw fully; two, decreased grip of the right forelimb; three, spontaneous movement in all directions, contralateral circling only if pulled by the tail; four, circling or walking to the right; five, walking only if stimulated; six, unresponsiveness to stimulation and with depressed level of consciousness; and seven, dead.
# IL-6 [11] = assay: IL-6 in the hippocampus by ELISA; format: in vivo, mouse; conditions: intracerebroventricular injection at surgery; hippocampus 48 h after surgery
# Protocol: (§4) IL-1β, IL-6, C3 and GDNF in the hippocampus were detected by using ELISA kits. For testing the IL-1β, IL-6 and GDNF, brain tissues were homogenized on ice in the RIPA buffer containing 25 mM Tris-HCl with pH 7.6, 150 mM NaCl, 1% sodium deoxycholate, 0.1% SDS and a protease inhibitor cocktail containing 10 mg/ml aproteinin, 5 mg/ml peptastin, 5 mg/ml leupetin and 1 mM phenylmethane sulfonylfluoride. For C3 testing, brain tissues were homogenized on ice in the PTR buffer (supplied in the kit). The supernatant was collected for ELISA detection after the homogenate was centrifuged at 13,000 g for 20 min at 4° C. and the protein concentration was determined by the BCA protein assay (Bio-Rad, Hemel Hempstead, Herts, UK). IL-1β, IL-6, C3 and GDNF in supernatant of brain were detected according to the manufacturer's instruction for ELISA, and the amount of them in each sample in the brain was normalized by its total protein content and was expressed as pg/mg protein.
# IL-1β [12] = assay: IL-1β in the hippocampus by ELISA; format: in vivo, mouse; conditions: intracerebroventricular injection at surgery; hippocampus 48 h after surgery
# Protocol: as §4
# C3 = C3 in the hippocampus by ELISA; format: in vivo, mouse; conditions: intracerebroventricular injection at surgery; hippocampus 48 h after surgery
# Protocol: as §4
molecule,measurement,setting,value
C[C@]1(C(=O)N(CCCC(=O)O)Cc2cccc(Cl)c2)CCN1C(=O)c1csc2ccccc12 [GLPG-0974],increase of IL-17 in the brain (cerebral cortex) caused by valeric acid,IL-17 [1],blocked the increase
same,increase of IL-17 in the blood caused by valeric acid,IL-17 [2],blocked the increase
NC(N)=NCCC[C@H](NC(=O)COCC(c1ccccc1)c1ccccc1)C(=O)O [SB290157],time to identify target box in Barnes maze,C57BL/6J mice [3],took less time
same,performance in novel object recognition test,C57BL/6J mice [4],improved the performance
Cc1nnc(SCC2=C(C(=O)O)N3C(=O)[C@@H](NC(=O)Cn4cnnn4)[C@H]3SC2)s1 [cefazolin],gut microbiota in the colon by 16S rRNA analyses,gut microbiota,almost undetectable level
CCCCC(=O)[O-].[Na+] [valeric sodium],infarct volume,C57BL/6J mice [5],larger
same,IL-1β in the ischemic penumbral brain tissues,IL-1β [6],increased
same,IL-6 in the ischemic penumbral brain tissues,IL-6 [7],increased
same,concentrations of valeric acid in the blood,[8],a level similar to that in the old mice
same,performance on rotarod,C57BL/6J mice [9],poorer performance
same,neurological deficit scores,C57BL/6J mice [10],worse
"GDNF: recombinant mouse GDNF (glia-derived nerve factor) (protein, UniProt P48540 78-211, looked up) Glial cell line-derived …: SPDKQAAALPRRERNRQAAAASPENSRGKGRRGQRGKNRGCVLTAIHLNVTDLGLGYETKEELIFRYCSGSCESAETMYDKILKNLSRSRRLTSDKVGQACCRPVAFDDDLSFLDDNLVYHILRKHSAKRCGCI",IL-6 levels in the hippocampus after surgery,IL-6 [11],reduced
same,IL-1β levels in the hippocampus after surgery,IL-1β [12],reduced
same,C3 levels in the hippocampus after surgery,C3,reduced
"heat-inactivated GDNF: heat-denatured (5 min at 100° C.) GDNF solution (protein, UniProt P48540 78-211, looked up, heat-denatured, heat-denatured (5 min at 100° C.) GDNF solution) Glial cell line-derived …: SPDKQAAALPRRERNRQAAAASPENSRGKGRRGQRGKNRGCVLTAIHLNVTDLGLGYETKEELIFRYCSGSCESAETMYDKILKNLSRSRRLTSDKVGQACCRPVAFDDDLSFLDDNLVYHILRKHSAKRCGCI",IL-6 levels in the hippocampus after surgery,IL-6 [11],not
same,C3 levels in the hippocampus after surgery,C3,not
